What follows are compounds tested against 5-hydroxytryptamine receptor 1A (Rattus norvegicus) (UniProt P19327) (assay: Inhibition of specific [3H]OH-DPAT binding at 5-hydroxytryptamine 1A receptor in rat hippocampal membranes).
Chain of 5-hydroxytryptamine receptor 1A (Rattus norvegicus) (P19327 whole entry, looked up): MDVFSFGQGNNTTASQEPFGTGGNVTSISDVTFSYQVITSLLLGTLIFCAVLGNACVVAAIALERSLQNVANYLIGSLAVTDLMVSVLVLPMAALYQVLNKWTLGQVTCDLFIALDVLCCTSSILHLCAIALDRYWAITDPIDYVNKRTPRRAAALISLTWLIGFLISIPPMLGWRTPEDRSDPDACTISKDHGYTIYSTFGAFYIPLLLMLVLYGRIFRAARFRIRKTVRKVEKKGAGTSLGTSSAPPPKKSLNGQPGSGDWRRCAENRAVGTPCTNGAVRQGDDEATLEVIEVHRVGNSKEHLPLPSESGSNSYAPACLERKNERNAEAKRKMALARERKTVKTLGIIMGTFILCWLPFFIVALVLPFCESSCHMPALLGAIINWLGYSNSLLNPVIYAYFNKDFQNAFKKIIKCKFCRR

Row | Compound | Ki [nM]
1 | CCCN(CCC)C[C@H]1C[C@@H]1c1ccccc1O [2-((1S,2S)-2-Dipropylaminomethyl-cyclopropyl)-phenol] | 752
2 | CCCN(CCC)C[C@H]1C[C@@H]1c1cccc(OC)c1 [[(1S,2S)-2-(3-Methoxy-phenyl)-cyclopropylmethyl]-dipropyl-amine] | 310
3 | CCCN(CCC)C[C@@H]1C[C@@H]1c1ccccc1O [2-((1S,2R)-2-Dipropylaminomethyl-cyclopropyl)-phenol] | 379
4 | CCCN(CCC)[C@H]1C[C@@H]1c1ccccc1OC [[(1S,2R)-2-(2-Methoxy-phenyl)-cyclopropyl]-dipropyl-amine] | 17
5 | CCCN(CCC)C[C@@H]1C[C@@H]1c1cccc(O)c1 [3-((1S,2R)-2-Dipropylaminomethyl-cyclopropyl)-phenol] | 58
6 | CCN(CC)C[C@H]1C[C@@H]1c1ccccc1O [2-((1S,2S)-2-Diethylaminomethyl-cyclopropyl)-phenol] | 506
7 | CCCN(CCC)C[C@@H]1C[C@@H]1c1ccccc1OC [[(1R,2S)-2-(2-Methoxy-phenyl)-cyclopropylmethyl]-dipropyl-amine] | 998
8 | CCCN(CCC)C[C@H]1C[C@@H]1c1ccccc1OC [[(1S,2S)-2-(2-Methoxy-phenyl)-cyclopropylmethyl]-dipropyl-amine] | 239
9 | CCCN(CCC)[C@@H]1C[C@@H]1c1cccc(OC)c1 [[(1R,2R)-2-(3-Methoxy-phenyl)-cyclopropyl]-dipropyl-amine] | 736
10 | CCCN(CCC)[C@@H]1C[C@@H]1c1ccccc1OC [[(1R,2R)-2-(2-Methoxy-phenyl)-cyclopropyl]-dipropyl-amine] | > 10000
11 | CCCN(CCC)C[C@H]1C[C@@H]1c1cccc(O)c1 [3-((1S,2S)-2-Dipropylaminomethyl-cyclopropyl)-phenol] | 186
12 | CCN(CC)C[C@H]1C[C@@H]1c1ccccc1OC [Diethyl-[(1S,2S)-2-(2-methoxy-phenyl)-cyclopropylmethyl]-amine] | 431
13 | CCCN(CCC)C[C@@H]1C[C@@H]1c1cccc(OC)c1 [[(1R,2S)-2-(3-Methoxy-phenyl)-cyclopropylmethyl]-dipropyl-amine] | 388

Reference: BindingDB's records for doi:10.1016/0960-894X(96)00045-5 (1996)
